Measured values published in ChEMBL document CHEMBL1201862, “PubChem BioAssay data set” (2004).
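Grown in 96-well plates, cells were treated for 48 hours with each compound at five concentrations. Insufficient inhibition: endpoint recorded as highest concentration tested. GI50 = concentration required for 50% inhibition of growth.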 The source made the active and inactive calls. No stated cut-off is given here; in the data, active = GI50 up to about 1.1 µM and inactive = higher.

Legend:
Test in all cases: NCI anticancer screen, dose series, 48 h
[1] = tested on: RXF 393
[2] = tested on: HCT-15
[3] = tested on: COLO 205
[4] = tested on: CCRF-CEM
[5] = tested on: UACC-257
[6] = tested on: IGROV-1
[7] = tested on: NCI-H226
[8] = tested on: LOX IMVI
[9] = tested on: CAKI-1
[10] = tested on: HL-60
[11] = tested on: SNB-19
[12] = tested on: TK-10
[13] = tested on: HOP-92
[14] = tested on: SN12C
[15] = tested on: SK-MEL-2
[16] = tested on: K562
[17] = tested on: M19-MEL
[18] = tested on: RPMI-8226
[19] = tested on: Hs-578T
[20] = tested on: DU-145

## COc1cccc(C=O)c1C(=O)c1cc(O)ccc1O
[1]
  GI50: 17.9 µM (inactive)
[2]
  GI50: 19.5 µM
[3]
  GI50: 18.1 µM (inactive)
[4]
  GI50: 3.91 µM (inactive)
[5]
  GI50: 20.1 µM (inactive)
[6]
  GI50: > 44.2 µM (inactive)
[7]
  GI50: > 100 µM (inactive)
[8]
  GI50: 37.8 µM (inactive)
[9]
  GI50: 23.7 µM (inactive)
[10]
  GI50: 9.62 µM (inactive)
[11]
  GI50: > 100 µM (inactive)
[12]
  GI50: 29.6 µM (inactive)
[13]
  GI50: 17.7 µM (inactive)
[14]
  GI50: > 84.1 µM (inactive)
[15]
  GI50: > 100 µM (inactive)
[16]
  GI50: > 10 µM (inactive)
[17]
  GI50: 30.8 µM (inactive)

## CC12CC[C@H](O)C(C)(C)[C@H]1CC[C@](C)(O)C2COc1ccc2ccc(=O)oc2c1 (stereo partly specified)
[1]
  GI50: > 100 µM (inactive)
[2]
  GI50: > 100 µM
[3]
  GI50: > 100 µM (inactive)
[4]
  GI50: > 100 µM (inactive)
[5]
  GI50: > 100 µM (inactive)
[6]
  GI50: > 100 µM (inactive)
[7]
  GI50: > 100 µM (inactive)
[8]
  GI50: > 100 µM (inactive)
[10]
  GI50: 53.1 µM (inactive)
[11]
  GI50: > 100 µM (inactive)
[12]
  GI50: > 100 µM (inactive)
[13]
  GI50: > 100 µM (inactive)
[14]
  GI50: > 100 µM (inactive)
[15]
  GI50: > 100 µM (inactive)
[16]
  GI50: 71 µM (inactive)
[17]
  GI50: > 100 µM (inactive)
[18]
  GI50: 99.1 µM (inactive)

## CC(C)(CN1CCCCC1)C(=O)/C=C/c1ccc(Cl)c(Cl)c1
[1]
  GI50: 1.17 µM (inactive)
[2]
  GI50: 1.41 µM
[3]
  GI50: 1.5 µM (inactive)
[4]
  GI50: 1.09 µM (active)
[5]
  GI50: 1.18 µM (inactive)
[6]
  GI50: 2 µM (inactive)
[7]
  GI50: 1.71 µM (inactive)
[8]
  GI50: 1.37 µM (inactive)
[10]
  GI50: 1.53 µM (inactive)
[11]
  GI50: 3.15 µM (inactive)
[12]
  GI50: 1.48 µM (inactive)
[13]
  GI50: 1.03 µM (active)
[14]
  GI50: 1.56 µM (inactive)
[15]
  GI50: 1.73 µM (inactive)
[16]
  GI50: 1.59 µM (inactive)
[17]
  GI50: 1.63 µM (inactive)
[18]
  GI50: 2.52 µM (inactive)

## COC1C(O)=C2C(=O)O/C(C)=C/C=C/C=C/C=C\CC(c3ccccc3)NC(=O)\C=C/C=C\C=C\C=C\[C@@]2(C)[C@@H]1O (stereo partly specified)
[1]
  GI50: 0.0128 µM (active)
[2]
  GI50: < 0.01 µM
[3]
  GI50: 0.0104 µM (active)
[4]
  GI50: < 0.01 µM (active)
[5]
  GI50: < 0.0129 µM (active)
[19]
  GI50: < 0.01 µM (active)
[6]
  GI50: < 0.0211 µM (active)
[7]
  GI50: 0.0175 µM (active)
[8]
  GI50: 0.0176 µM (active)
[20]
  GI50: 0.0117 µM (active)
[9]
  GI50: < 0.0203 µM (active)
[10]
  GI50: < 0.01 µM (active)
[11]
  GI50: < 0.01 µM (active)
[12]
  GI50: < 0.0361 µM (active)
[13]
  GI50: < 0.01 µM (active)
[14]
  GI50: 0.0986 µM (active)
[15]
  GI50: < 0.0218 µM (active)
[16]
  GI50: < 0.01 µM (active)
[17]
  GI50: 0.0538 µM (active)
[18]
  GI50: < 0.01 µM (active)

## Cc1ccc2[nH]c(Sc3c([N+](=O)[O-])ncn3C)nc2c1
[1]
  GI50: 16.1 µM (inactive)
[2]
  GI50: 13.8 µM
[3]
  GI50: 13.3 µM (inactive)
[5]
  GI50: 12.6 µM (inactive)
[6]
  GI50: 22.1 µM (inactive)
[7]
  GI50: 12.8 µM (inactive)
[8]
  GI50: 34.3 µM (inactive)
[9]
  GI50: 11.9 µM (inactive)
[11]
  GI50: > 100 µM (inactive)
[12]
  GI50: 44.9 µM (inactive)
[13]
  GI50: 16.1 µM (inactive)
[14]
  GI50: 18 µM (inactive)
[17]
  GI50: 18.5 µM (inactive)
[18]
  GI50: 25.1 µM (inactive)

## CCOC(=O)C(=O)/C=C(\C)Nc1c(NC2OCC(OC(C)=O)C(OC(C)=O)C2OC(C)=O)nc(SC)[nH]c1=O (stereo unspecified)
[1]
  GI50: > 100 µM (inactive)
[2]
  GI50: > 100 µM
[3]
  GI50: > 100 µM (inactive)
[4]
  GI50: > 100 µM (inactive)
[5]
  GI50: > 100 µM (inactive)
[6]
  GI50: > 100 µM (inactive)
[8]
  GI50: > 100 µM (inactive)
[9]
  GI50: > 100 µM (inactive)
[10]
  GI50: > 10 µM (inactive)
[11]
  GI50: > 100 µM (inactive)
[12]
  GI50: > 100 µM (inactive)
[13]
  GI50: > 100 µM (inactive)
[14]
  GI50: > 100 µM (inactive)
[15]
  GI50: > 100 µM (inactive)
[16]
  GI50: > 100 µM (inactive)
[17]
  GI50: > 100 µM (inactive)
[18]
  GI50: > 100 µM (inactive)

## COC(=O)C(=O)C1(CCC(C)=O)c2ccccc2-c2c(C)ccc(C)c21 (stereo unspecified)
[1]
  GI50: 32.1 µM (inactive)
[2]
  GI50: 32.6 µM
[3]
  GI50: 34.7 µM (inactive)
[4]
  GI50: 37.1 µM (inactive)
[5]
  GI50: 33 µM (inactive)
[6]
  GI50: 57.8 µM (inactive)
[7]
  GI50: > 100 µM (inactive)
[8]
  GI50: 36.8 µM (inactive)
[9]
  GI50: 31.4 µM (inactive)
[10]
  GI50: 10.3 µM (inactive)
[11]
  GI50: > 100 µM (inactive)
[12]
  GI50: 39.6 µM (inactive)
[14]
  GI50: 69.2 µM (inactive)
[15]
  GI50: 40.6 µM (inactive)
[16]
  GI50: 30.1 µM (inactive)
[17]
  GI50: 64 µM (inactive)
[18]
  GI50: 26.2 µM (inactive)

## Nc1ccc(C(=O)N/C(=C\c2cccc([N+](=O)[O-])c2)c2nc3ccccc3[nH]2)cc1
[1]
  GI50: 24.9 µM (inactive)
[2]
  GI50: 76.6 µM
[3]
  GI50: > 100 µM (inactive)
[4]
  GI50: > 100 µM (inactive)
[6]
  GI50: 28.5 µM (inactive)
[7]
  GI50: > 100 µM (inactive)
[8]
  GI50: > 100 µM (inactive)
[9]
  GI50: 47 µM (inactive)
[10]
  GI50: > 81.7 µM (inactive)
[11]
  GI50: 40.6 µM (inactive)
[12]
  GI50: 49 µM (inactive)
[13]
  GI50: 23.6 µM (inactive)
[14]
  GI50: 83.9 µM (inactive)
[15]
  GI50: 37.2 µM (inactive)
[16]
  GI50: > 100 µM (inactive)
[17]
  GI50: > 100 µM (inactive)
[18]
  GI50: > 100 µM (inactive)

## OCC1OC(NO)C(O)C(O)C1O (stereo unspecified)
[1]
  GI50: > 100 µM (inactive)
[2]
  GI50: > 100 µM
[3]
  GI50: > 100 µM (inactive)
[4]
  GI50: > 100 µM (inactive)
[5]
  GI50: > 100 µM (inactive)
[6]
  GI50: > 100 µM (inactive)
[7]
  GI50: > 100 µM (inactive)
[8]
  GI50: > 100 µM (inactive)
[9]
  GI50: > 100 µM (inactive)
[10]
  GI50: > 100 µM (inactive)
[11]
  GI50: > 100 µM (inactive)
[12]
  GI50: > 100 µM (inactive)
[13]
  GI50: > 100 µM (inactive)
[14]
  GI50: > 100 µM (inactive)
[16]
  GI50: > 100 µM (inactive)
[17]
  GI50: > 100 µM (inactive)
[18]
  GI50: > 100 µM (inactive)

## CCCN/C(N)=N/C#N
[1]
  GI50: > 100 µM (inactive)
[2]
  GI50: 19.4 µM
[3]
  GI50: 18 µM (inactive)
[5]
  GI50: > 100 µM (inactive)
[6]
  GI50: > 100 µM (inactive)
[7]
  GI50: > 100 µM (inactive)
[9]
  GI50: > 100 µM (inactive)
[10]
  GI50: > 100 µM (inactive)
[11]
  GI50: > 100 µM (inactive)
[12]
  GI50: > 100 µM (inactive)
[13]
  GI50: > 100 µM (inactive)
[14]
  GI50: > 100 µM (inactive)
[15]
  GI50: > 100 µM (inactive)
[16]
  GI50: 60.3 µM (inactive)
[17]
  GI50: 77.6 µM (inactive)
[18]
  GI50: > 100 µM (inactive)

## CN(C)CC1CCCC(CN2CCCCC2)C1=O (stereo unspecified)
[1]
  GI50: 12.8 µM (inactive)
[2]
  GI50: 8.83 µM
[3]
  GI50: 3.08 µM (inactive)
[4]
  GI50: 0.762 µM (active)
[5]
  GI50: 14.6 µM (inactive)
[19]
  GI50: 19.7 µM (inactive)
[6]
  GI50: 17 µM (inactive)
[7]
  GI50: 20.6 µM (inactive)
[8]
  GI50: 8.26 µM (inactive)
[20]
  GI50: 18.2 µM (inactive)
[9]
  GI50: 1.53 µM (inactive)
[10]
  GI50: 2.18 µM (inactive)
[11]
  GI50: > 88.3 µM (inactive)
[12]
  GI50: 8.73 µM (inactive)
[13]
  GI50: 1.96 µM (inactive)
[14]
  GI50: 8.32 µM (inactive)
[15]
  GI50: 15.7 µM (inactive)
[16]
  GI50: 0.172 µM (active)
[17]
  GI50: 18.8 µM (inactive)
[18]
  GI50: 0.158 µM (active)

## Clc1ccc(C(c2ccc(Cl)cc2)c2ccccn2)cc1
[1]
  GI50: 14.5 µM (inactive)
[2]
  GI50: 17.3 µM
[4]
  GI50: 21.5 µM (inactive)
[5]
  GI50: 18.8 µM (inactive)
[6]
  GI50: 37.8 µM (inactive)
[7]
  GI50: 17.1 µM (inactive)
[8]
  GI50: 16.7 µM (inactive)
[9]
  GI50: 23.2 µM (inactive)
[10]
  GI50: 20.6 µM (inactive)
[11]
  GI50: 22.3 µM (inactive)
[12]
  GI50: 19.7 µM (inactive)
[13]
  GI50: 15.8 µM (inactive)
[14]
  GI50: 17.3 µM (inactive)
[15]
  GI50: 19 µM (inactive)
[16]
  GI50: 21.6 µM (inactive)
[17]
  GI50: 31.4 µM (inactive)
[18]
  GI50: 28.8 µM (inactive)
